Values quoted from earlier work in US20250235469A1, “Synergistic combinations of Finasteride, Dutasteride, and Minoxidil” (priority 2024, published 2025).

How the values were obtained:
DHT levels = conditions: 5 mg daily dose; 2004 study
[1] = in vivo
[2] = biological target: T1, 5α-reductase type 2 isoenzyme (Homo sapiens, UniProt P31213)
T1 sequence (P31213 1-254): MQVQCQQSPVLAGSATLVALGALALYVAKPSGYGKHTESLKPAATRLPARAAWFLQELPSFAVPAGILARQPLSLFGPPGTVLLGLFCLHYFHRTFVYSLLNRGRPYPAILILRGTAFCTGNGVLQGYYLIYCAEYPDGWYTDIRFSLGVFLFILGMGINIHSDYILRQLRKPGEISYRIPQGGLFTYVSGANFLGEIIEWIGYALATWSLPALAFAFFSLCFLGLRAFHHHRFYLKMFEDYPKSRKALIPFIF

[3] = biological target: T2, 5α-reductase type 1 isoenzyme (Homo sapiens, UniProt P18405)
T2 sequence (P18405 1-259): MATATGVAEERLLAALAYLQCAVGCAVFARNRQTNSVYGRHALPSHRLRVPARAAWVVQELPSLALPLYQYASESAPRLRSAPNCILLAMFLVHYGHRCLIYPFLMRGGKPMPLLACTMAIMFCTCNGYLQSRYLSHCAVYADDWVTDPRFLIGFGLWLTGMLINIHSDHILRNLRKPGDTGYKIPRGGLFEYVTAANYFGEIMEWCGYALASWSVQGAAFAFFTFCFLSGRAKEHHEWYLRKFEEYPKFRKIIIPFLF

Compound | reduced DHT levels (DHT levels) | half-life [1] | inhibition of type 2 isoenzyme of 5α-reductase [2] | hair count and hair loss in users (hair count; studies of finasteride users) | inhibition of type 1 isoenzyme of 5α-reductase [3] | increase in hair count (hair count; men, 2006 study, dutasteride compared to finasteride)
CC(C)(C)NC(=O)[C@H]1CC[C@H]2[C@@H]3CC[C@H]4NC(=O)C=C[C@]4(C)[C@H]3CC[C@]12C [finasteride, 17β-(N-tert-butylcarbamoyl)-4-aza-5α-androst-1-en-3-one] | 70.8% | only a few hours | only inhibits the type 2 isoenzyme | both an increase in hair count and a reduction in hair loss |  | 
C[C@]12C=CC(=O)N[C@@H]1CC[C@@H]1[C@@H]2CC[C@]2(C)[C@@H](C(=O)Nc3cc(C(F)(F)F)ccc3C(F)(F)F)CC[C@@H]12 [dutasteride, N-[2,5-bis(trifluoromethyl)phenyl]-3-oxo-4-aza-5α-androst-1-ene-17β-carboxamide] | 98.4% | several months | inhibits both the types 1 and 2 isoenzymes |  | inhibits both the types 1 and 2 isoenzymes | higher increase in hair count
